Experimental data taken from patent US20240043427A1 (Gilead Sciences, Inc., priority 2020, published 2024).

How the values were obtained:
CD73 [1] = biological target: T1, CD73 (Homo sapiens (Human), UniProt P21589); format: biochemical; settings: 1 mM NaH2PO4 in enzyme buffer, CD73 0.3 nM, AMP 15 uM
CD73 [2] = biological target: T1, CD73; test: MDA-MB-231 Cell Based CD73 Activity Assay (DMEM); settings: MDA-MB-231-GFP cells, DMEM medium with 10% human plasma, 200 uM AMP

T1 sequence (P21589 27-574): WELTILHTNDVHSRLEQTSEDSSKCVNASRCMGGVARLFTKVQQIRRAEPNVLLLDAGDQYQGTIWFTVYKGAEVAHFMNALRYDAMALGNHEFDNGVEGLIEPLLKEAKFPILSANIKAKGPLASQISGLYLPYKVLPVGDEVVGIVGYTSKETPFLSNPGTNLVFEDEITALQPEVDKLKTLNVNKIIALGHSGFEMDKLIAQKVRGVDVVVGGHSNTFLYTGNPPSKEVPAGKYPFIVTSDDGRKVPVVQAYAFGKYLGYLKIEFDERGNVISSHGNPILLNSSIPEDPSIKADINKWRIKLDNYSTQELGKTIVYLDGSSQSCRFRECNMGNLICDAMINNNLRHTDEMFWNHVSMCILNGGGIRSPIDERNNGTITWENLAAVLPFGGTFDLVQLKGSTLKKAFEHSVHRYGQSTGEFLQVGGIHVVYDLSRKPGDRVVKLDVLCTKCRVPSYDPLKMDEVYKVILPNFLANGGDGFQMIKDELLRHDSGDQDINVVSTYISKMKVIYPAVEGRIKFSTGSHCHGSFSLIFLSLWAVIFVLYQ

Row | SMILES | IC50 (CD73 [1]) [nM] | EC50 (CD73 [2]) [nM]
1 | O=c1[nH]cc(-c2cc(N3CC(F)(C(F)(F)F)C3)c3ncnn3n2)c(=O)[nH]1 [Example 433, 5-(8-(3-fluoro-3-(trifluoromethyl)azetidin-1-yl)-[1,2,4]triazolo[1,5-b]pyridazin-6-yl)pyrimidine-2,4(1H,3H)-dione] | 9.71 | 44.6
2 | O=c1[nH]cc(-c2cc(N3CC(Oc4ccc(C(F)(F)F)cn4)(C(F)(F)F)C3)c3nccn3n2)c(=O)[nH]1 [Example 434, 5-(8-(3-(trifluoromethyl)-3-((5-(trifluoromethyl)pyridin-2-yl)oxy)azetidin-1-yl)imidazo[1,2-b]pyridazin-6-yl)pyrimidine-2,4(1H,3H)-dione] | 2.78 | 14.4
3 | O=c1[nH]cc(-c2cc(N3CC(F)(COc4ccc(C(F)(F)F)cn4)C3)c3nccn3n2)c(=O)[nH]1 [Example 435, 5-(8-(3-fluoro-3-(((5-(trifluoromethyl)pyridin-2-yl)oxy)methyl)azetidin-1-yl)imidazo[1,2-b]pyridazin-6-yl)pyrimidine-2,4(1H,3H)-dione] | 6 | 66
4 | O=C(NCC(F)(F)F)OCC1(F)CN(c2cc(-c3c[nH]c(=O)[nH]c3=O)nn3ccnc23)C1 [Example 437, (1-(6-(2,4-dioxo-1,2,3,4-tetrahydropyrimidin-5-yl)imidazo[1,2-b]pyridazin-8-yl)-3-fluoroazetidin-3-yl)methyl (2,2,2-trifluoroethyl)carbamate] | 12.8 | 43.6
5 | CC1(C)CN(c2cc(-c3c[nH]c(=O)[nH]c3=O)nn3c(F)c(C4CC4)nc23)CC1(F)F [Example 440, 5-(2-cyclopropyl-8-(3,3-difluoro-4,4-dimethylpyrrolidin-1-yl)-3-fluoroimidazo[1,2-b]pyridazin-6-yl)pyrimidine-2,4(1H,3H)-dione] | 38.2 | 140
6 | CC1(C)CN(c2cc(-c3c[nH]c(=O)[nH]c3=O)nn3cc(C4(C(F)(F)F)CC4)nc23)CC1(F)F [Example 441, 5-(8-(3,3-difluoro-4,4-dimethylpyrrolidin-1-yl)-2-(1-(trifluoromethyl)cyclopropyl)imidazo[1,2-b]pyridazin-6-yl)pyrimidine-2,4(1H,3H)-dione] | 46.3 | 239
7 | O=c1[nH]cc(-c2cc(N3CC4CCCC43)c3nccn3n2)c(=O)[nH]1 (stereo not drawn) [Example 442, 5-(8-(6-azabicyclo[3.2.0]heptan-6-yl)imidazo[1,2-b]pyridazin-6-yl)pyrimidine-2,4(1H,3H)-dione] | 6.46 | 19.6
8 | O=c1[nH]cc(-c2cc(N3CC(CC(F)F)C3)c3nccn3n2)c(=O)[nH]1 [Example 443, 5-(8-(3-(2,2-difluoroethyl)azetidin-1-yl)imidazo[1,2-b]pyridazin-6-yl)pyrimidine-2,4(1H,3H)-dione] | 157 | 188
9 | CC1(CC(F)F)CN(c2cc(-c3c[nH]c(=O)[nH]c3=O)nn3ccnc23)C1 [Example 444, 5-(8-(3-(2,2-difluoroethyl)-3-methylazetidin-1-yl)imidazo[1,2-b]pyridazin-6-yl)pyrimidine-2,4(1H,3H)-dione] | 71 | 356
10 | CC1(CC(F)(F)F)CN(c2cc(-c3c[nH]c(=O)[nH]c3=O)nn3ccnc23)C1 [Example 445, 5-(8-(3-methyl-3-(2,2,2-trifluoroethyl)azetidin-1-yl)imidazo[1,2-b]pyridazin-6-yl)pyrimidine-2,4(1H,3H)-dione] | 148 | 256
11 | O=c1[nH]cc(-c2cc(N3CC(C45CC(C4)C5)C3)c3nccn3n2)c(=O)[nH]1 [Example 446, 5-(8-(3-(bicyclo[1.1.1]pentan-1-yl)azetidin-1-yl)imidazo[1,2-b]pyridazin-6-yl)pyrimidine-2,4(1H,3H)-dione] | 91 | 1100
12 | O=c1[nH]cc(-c2cc(N3CC(OCC(F)(F)F)C3)c3nccn3n2)c(=O)[nH]1 [Example 447, 5-(8-(3-(2,2,2-trifluoroethoxy)azetidin-1-yl)imidazo[1,2-b]pyridazin-6-yl)pyrimidine-2,4(1H,3H)-dione] | > 250 | 718

Now those with a lower IC50 (CD73 [1]), led by results:

Row | IC50 (CD73 [1]) [nM] | EC50 (CD73 [2]) [nM] | SMILES
13 | 1.63 | 5.63 | N#Cc1cc(F)c([C@H]2C[C@@H]2c2cc(-c3c[nH]c(=O)[nH]c3=O)nn3c(F)cnc23)c(F)c1 [Example 425, 4-((1S,2S)-2-(6-(2,4-dioxo-1,2,3,4-tetrahydropyrimidin-5-yl)-3-fluoroimidazo[1,2-b]pyridazin-8-yl)cyclopropyl)-3,5-difluorobenzonitrile]
14 | 0.23 | 4.5 | CC1(C)CN(c2cc(-c3c[nH]c(=O)[nH]c3=O)nn3ncnc23)CC1(F)F [Example 426, 5-(8-(3,3-difluoro-4,4-dimethylpyrrolidin-1-yl)-[1,2,4]triazolo[1,5-b]pyridazin-6-yl)pyrimidine-2,4(1H,3H)-dione]
15 | 0.48 | 7.4 | O=c1[nH]cc(-c2cc([C@H]3C[C@@H]3c3ccc(C(F)(F)F)cc3)c3ncnn3n2)c(=O)[nH]1 [Example 427, 5-(8-((1S,2S)-2-(4-(trifluoromethyl)phenyl)cyclopropyl)-[1,2,4]triazolo[1,5-b]pyridazin-6-yl)pyrimidine-2,4(1H,3H)-dione]
16 | 1.38 | 14.7 | N#Cc1cc(F)c([C@H]2C[C@@H]2c2cc(-c3c[nH]c(=O)[nH]c3=O)nn3ncnc23)c(F)c1 [Example 428, 4-((1S,2S)-2-(6-(2,4-dioxo-1,2,3,4-tetrahydropyrimidin-5-yl)-[1,2,4]triazolo[1,5-b]pyridazin-8-yl)cyclopropyl)-3,5-difluorobenzonitrile]
17 | 2.22 | 8.89 | O=c1[nH]cc(-c2cc(N3CC[C@@H](OC(F)(F)F)C3)c3ncnn3n2)c(=O)[nH]1 [Example 429, (R)-5-(8-(3-(trifluoromethoxy)pyrrolidin-1-yl)-[1,2,4]triazolo[1,5-b]pyridazin-6-yl)pyrimidine-2,4(1H,3H)-dione]
18 | 0.18 | 0.71 | O=c1[nH]cc(-c2cc([C@H]3C[C@@H]3c3ccc4c(cnn4CC(F)(F)F)c3)c3ncnn3n2)c(=O)[nH]1 [Example 430, 5-(8-((1S,2S)-2-(1-(2,2,2-trifluoroethyl)-1H-indazol-5-yl)cyclopropyl)-[1,2,4]triazolo[1,5-b]pyridazin-6-yl)pyrimidine-2,4(1H,3H)-dione]
19 | 0.15 | 0.13 | O=c1[nH]cc(-c2cc([C@H]3C[C@@H]3c3ccc4cnn(CC(F)(F)F)c4c3)c3ncnn3n2)c(=O)[nH]1 [Example 431, 5-(8-((1S,2S)-2-(1-(2,2,2-trifluoroethyl)-1H-indazol-6-yl)cyclopropyl)-[1,2,4]triazolo[1,5-b]pyridazin-6-yl)pyrimidine-2,4(1H,3H)-dione]
20 | 0.14 | 0.1 | CC(C)NC(=O)OCC(F)(F)COc1cc(-c2c[nH]c(=O)[nH]c2=O)nn2ncnc12 [Example 438, 3-((6-(2,4-dioxo-1,2,3,4-tetrahydropyrimidin-5-yl)-[1,2,4]triazolo[1,5-b]pyridazin-8-yl)oxy)-2,2-difluoropropyl isopropylcarbamate]
21 | 0.77 | 2.63 | O=c1[nH]cc(-c2cc([C@H]3C[C@@H]3c3ccc(Cl)cn3)c3ncnn3n2)c(=O)[nH]1 [Example 439, 5-(8-((1S,2S)-2-(5-chloropyridin-2-yl)cyclopropyl)-[1,2,4]triazolo[1,5-b]pyridazin-6-yl)pyrimidine-2,4(1H,3H)-dione]
